These results are taken from PubChem BioAssay AID743319 (Broad Institute, 2014).

Activity calls are given as the source filed them.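 Rule for the calls: active = fitted curve reaches 200% activation at or below the highest valid dose tested for that compound; inconclusive = flat fit between 30 and 70% activation, or unreliable fit; inactive = the rest.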

Endoplasmic reticulum aminopeptidase 2 (Homo sapiens), sequence (Q6P179 whole entry, looked up): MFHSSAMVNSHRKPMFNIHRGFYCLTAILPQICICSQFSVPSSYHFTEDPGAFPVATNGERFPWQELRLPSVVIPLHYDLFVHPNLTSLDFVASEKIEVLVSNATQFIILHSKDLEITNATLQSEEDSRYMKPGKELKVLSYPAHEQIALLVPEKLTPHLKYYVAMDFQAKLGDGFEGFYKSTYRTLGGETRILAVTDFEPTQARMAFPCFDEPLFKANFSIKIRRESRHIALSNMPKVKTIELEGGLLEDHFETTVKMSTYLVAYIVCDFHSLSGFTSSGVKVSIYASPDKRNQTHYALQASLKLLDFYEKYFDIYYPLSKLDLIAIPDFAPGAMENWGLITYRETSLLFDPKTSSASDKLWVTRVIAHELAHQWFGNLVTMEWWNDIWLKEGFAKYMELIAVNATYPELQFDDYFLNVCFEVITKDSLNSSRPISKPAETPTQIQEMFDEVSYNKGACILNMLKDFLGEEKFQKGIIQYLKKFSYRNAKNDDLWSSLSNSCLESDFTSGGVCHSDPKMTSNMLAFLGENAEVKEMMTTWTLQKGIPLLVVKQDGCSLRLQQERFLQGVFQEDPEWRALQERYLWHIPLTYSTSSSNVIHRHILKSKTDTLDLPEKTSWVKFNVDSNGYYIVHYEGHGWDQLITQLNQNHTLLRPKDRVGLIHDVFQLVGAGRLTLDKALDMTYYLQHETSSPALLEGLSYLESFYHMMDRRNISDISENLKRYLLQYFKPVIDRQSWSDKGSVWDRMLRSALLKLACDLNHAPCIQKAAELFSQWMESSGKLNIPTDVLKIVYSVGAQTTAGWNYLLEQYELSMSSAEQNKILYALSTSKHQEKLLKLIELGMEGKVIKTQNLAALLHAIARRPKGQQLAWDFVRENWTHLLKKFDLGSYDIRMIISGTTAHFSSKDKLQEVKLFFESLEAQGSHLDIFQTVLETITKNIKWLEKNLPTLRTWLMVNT

One test addresses Endoplasmic reticulum aminopeptidase 2 (Homo sapiens) (UniProt Q6P179). The experiment in a line: enhanced ERAP2 Arg-AMC hydrolysis – biochemical, fluorescence plate reader, cherry-picked samples, selectivity assay for selective ERAP1 modulator project, dose response (AID 743319). The settings on record: recombinant ERAP2, Arg-AMC cleavage fluorescence, 1 h.
As for `Cc1ccc(S(=O)(=O)c2cc3ccc(O)cc3oc2=O)cc1C`, the AC200 was 721 nM. On the same count and under the same terms, the figure for `Cc1cc(=O)oc2c(CN3CCCC3)c(O)c(Cl)cc12` is 1400 nM; for `CCc1cc(=O)oc2c(CN3CCN(C)CC3)c(O)ccc12` it is 3170 nM.

For `Cc1cc(=O)oc2c(CN3CCN(CCO)CC3)c(O)ccc12`, the AC200 was 3010 nM. Still for that read-out and setting: the result for `O=c1oc2c(CN3CCN(CCO)CC3)c(O)ccc2cc1-c1ccccn1` reads 606 nM; that for `C[C@@H]1CCCCO[C@@H](CN(C)C(=O)CCC(F)(F)F)[C@@H](C)CN([C@@H](C)CO)C(=O)c2cc(NS(=O)(=O)c3ccc(Cl)cc3)ccc2O1`, > 10000 nM (inactive). On the same count and under the same terms, the result for `COCC(=O)N1[C@@H]2c3ccc(/C=C/c4ccccc4)c(=O)n3C[C@H]1[C@H](CO)[C@H]2C(=O)N1CCOCC1` reads 1500 nM; that for `CC1CN(Cc2cc(=O)oc3cc(O)c(Cl)cc23)CC(C)O1` (stereo unspecified), 2520 nM. Still for that read-out and setting: the figure for `O=S(=O)(O)c1ccc(N2N=C(c3ccccc3)CC2c2ccccc2)cc1` (stereo unspecified) is 2050 nM; for `COC(=O)Cc1c(C)c2ccc(O)c(CNCc3ccc(OC)c(OC)c3)c2oc1=O` it is 1010 nM. With `CN(C)Cc1c(O)ccc2cc(-c3nc4ccccc4n3C)c(=O)oc12`, the AC200 is 445 nM. On to `CC(=O)N1[C@@H]2c3ccc(/C=C/c4ccccc4)c(=O)n3C[C@H]1[C@H](CO)[C@H]2C(=O)N1CCOCC1`, for which the AC200 was 2030 nM. Still for that read-out and setting: the figure for `O=C(NCc1ccccn1)[C@@H]1[C@@H](CO)[C@@H]2Cn3c(ccc(/C=C/c4ccccc4)c3=O)[C@H]1N2CC1CC1` is 2270 nM; for `CCN(CC)Cc1c(O)c(Cl)cc2c(C)cc(=O)oc12` it is 1240 nM. The same measure, in the same setting: the result for `CCN(CC)Cc1c(O)ccc2cc(-c3nc4ccccc4n3C)c(=O)oc12` reads 436 nM; that for `Cc1c(O)ccc2c(CN3CCN(Cc4ccccc4)CC3)cc(=O)oc12`, 5190 nM; that for `CCC(=O)N1[C@@H]2c3ccc(/C=C/c4ccccc4)c(=O)n3C[C@H]1[C@H](CO)[C@H]2C(=O)N(C)C`, 1690 nM. Consider `COc1cc2cc(C(=O)N3CCN(Cc4ccc5c(c4)OCO5)CC3)c(=O)oc2cc1OC`, for which the AC200 is > 5600 nM (inactive).

Consider `CCCc1cc(=O)oc2c(CN(CC)CC)c(O)c(Cl)cc12`, for which the AC200 was 1330 nM. Still for that read-out and setting: the result for `Cc1ccc(-c2cc(C(=O)N3CCCC3)c3ccccc3n2)s1` reads > 11000 nM (inactive); that for `CCc1c(C)c2cc(Cl)c(O)c(CN(CC)CC)c2oc1=O`, 1170 nM. Same read-out and setting: the result for `Cc1c(O)ccc2cc(S(=O)(=O)c3ccccc3)c(=O)oc12` reads 860 nM. Same read-out and setting: the result for `CN1[C@@H]2Cn3c(ccc(/C=C/c4ccccc4)c3=O)[C@H]1[C@@H](C(=O)NC1CCCC1)[C@@H]2CO` reads 1900 nM.

As for `Cc1c(-c2ccccc2)c(=O)oc2cc(O)ccc12`, the AC200 is 2340 nM. The same measure, in the same setting: the result for `COc1ccc(-c2cc3ccc(O)cc3oc2=O)cc1OC` reads 1880 nM; that for `O=c1ccc2cc(O)c(O)cc2o1`, 3270 nM; that for `COc1ccc(-c2cc3ccc(O)cc3oc2=O)cc1`, 775 nM. Same read-out and setting: the result for `COc1ccc(CNCc2c(O)c(Cl)cc3c(C)c(C)c(=O)oc23)c(OC)c1` reads 1030 nM; that for `CC(=O)N1[C@@H]2c3ccc(/C=C/c4ccccc4)c(=O)n3C[C@H]1[C@H](CO)[C@H]2C(=O)N(C)C`, 1570 nM. Still for that read-out and setting: the figure for `COC(=O)[C@H]1[C@H](CO)[C@H]2Cn3c(ccc(/C=C/c4ccccc4)c3=O)[C@@H]1N2C(=O)C1CCC1` is 1600 nM.

The test is the same for the next values; noted with them: recombinant ERAP2, Arg-AMC cleavage fluorescence, 1 h; at 5.6 µM (top of the series).
For `C[C@@H]1CCCCO[C@@H](CN(C)Cc2ccc3c(c2)OCO3)[C@@H](C)CN([C@@H](C)CO)C(=O)c2cc(NS(=O)(=O)c3ccccc3)ccc2O1`, the activation was 12.7% (inactive).

The same test, now with this note: recombinant ERAP2, Arg-AMC cleavage fluorescence, 1 h; at 10 µM (top of the series).
For the molecule `Cc1noc(C)c1S(=O)(=O)Nc1ccc2c(c1)C(=O)N([C@H](C)CO)C[C@H](C)[C@H](CN(C)Cc1ccc3c(c1)OCO3)OCCCC[C@@H](C)O2`, the activation is 11.2% (inactive). Take `C[C@@H]1CCCCO[C@@H](CN(C)C)[C@H](C)CN([C@@H](C)CO)C(=O)c2cc(NC(=O)Nc3ccc(C(F)(F)F)cc3)ccc2O1`: the activation was 14.3% (inactive).

Turning to `CCCN(C)C[C@@H]1OCCCC[C@@H](C)Oc2ccc(NS(=O)(=O)c3c(C)noc3C)cc2C(=O)N([C@H](C)CO)C[C@@H]1C`, the activation is -3.16% (inactive).

The test is the same for the next values; noted with them: recombinant ERAP2, Arg-AMC cleavage fluorescence, 1 h; at 11 µM (top of the series).
Regarding `O=C(O)c1cccc(NC(=O)c2ccccc2NC(=O)c2cccc([N+](=O)[O-])c2)c1`, the activation is 15.7% (inactive).

For the molecule `C[C@@H]1CCCCO[C@@H](CN(C)Cc2ccccc2)[C@H](C)CN([C@H](C)CO)C(=O)c2cc(NS(=O)(=O)c3cccs3)ccc2O1`, the activation was 6.39% (inactive).

Regarding `COc1ccc(NC(=O)Nc2cccc3c2O[C@H](CN(C)Cc2ccc(C(=O)O)cc2)[C@H](C)CN([C@H](C)CO)C3=O)cc1`, the activation is 15.1% (inactive).

Take `C[C@@H]1CCCCO[C@@H](CN(C)CC2CC2)[C@@H](C)CN([C@H](C)CO)C(=O)c2cc(NS(=O)(=O)c3ccc(Cl)cc3)ccc2O1`: the activation was 18.4% (inactive).

Take `CCCN(C)C[C@@H]1OCCCC[C@H](C)Oc2ccc(NC(=O)Nc3ccc(F)cc3)cc2C(=O)N([C@H](C)CO)C[C@@H]1C`: the activation was 10.8% (inactive). On the same count and under the same terms, the result for `CCC(=O)N(C)C[C@@H]1Oc2ncc(C#Cc3ccncc3)cc2C(=O)N([C@@H](C)CO)C[C@@H]1C` reads -17.3% (inactive); that for `Cc1ccc(S(=O)(=O)Nc2ccc3c(c2)C(=O)N([C@@H](C)CO)C[C@H](C)[C@H](CN(C)C)OCCCC[C@@H](C)O3)cc1`, 14.1% (inactive). `CCCN(C)C[C@@H]1OCCCC[C@@H](C)Oc2ccc(NS(=O)(=O)c3cccs3)cc2C(=O)N([C@H](C)CO)C[C@@H]1C`: the activation was 11% (inactive).

As for `O=C(CSc1cn[nH]n1)Nc1cccc(C(=O)O)c1`, the activation was 13.8% (inactive).

On to `COc1ccc(CN(C)C[C@@H]2OCCCC[C@H](C)Oc3ccc(NS(=O)(=O)c4cccs4)cc3C(=O)N([C@@H](C)CO)C[C@@H]2C)cc1`, for which the activation is 20.4% (inactive). Still for that read-out and setting: the result for `Cc1noc(C)c1NC(=O)N(C)C[C@@H]1Oc2c(NC(=O)Nc3ccccc3)cccc2C(=O)N([C@H](C)CO)C[C@@H]1C` reads 10.6% (inactive). `COc1ccc(CN(C)C[C@@H]2OCCCC[C@@H](C)Oc3ccc(NS(=O)(=O)c4cccs4)cc3C(=O)N([C@H](C)CO)C[C@@H]2C)cc1`: the activation is 10.9% (inactive). As to `CCC(=O)N(C)C[C@H]1Oc2ncc(C#Cc3ccncc3)cc2C(=O)N([C@H](C)CO)C[C@H]1C`, the activation was -5.99% (inactive). Regarding `C[C@H](CO)N1C[C@H](C)[C@@H](CN(C)CC2CC2)Oc2c(NC(=O)Nc3ccc(C(F)(F)F)cc3)cccc2C1=O`, the activation was -20.2% (inactive). The same measure, in the same setting: the result for `C[C@@H]1CCCCO[C@@H](CN(C)Cc2ccc3c(c2)OCO3)[C@@H](C)CN([C@H](C)CO)C(=O)c2cc(NS(=O)(=O)c3cccs3)ccc2O1` reads 1.03% (inactive).

On to `CNC[C@H]1OCCCC[C@@H](C)Oc2ccc(NS(=O)(=O)c3ccc(C)cc3)cc2C(=O)N([C@@H](C)CO)C[C@H]1C`, for which the activation is 1.54% (inactive).

For the molecule `O=C(C[C@@H]1CC[C@@H]2[C@H](COC[C@H](O)CN2C(=O)Nc2cccc(Cl)c2)O1)N1CCCCC1`, the activation was 2.69% (inactive). Still for that read-out and setting: the figure for `COc1ccc(CN(C)C[C@@H]2OCCCC[C@H](C)Oc3ccc(NS(=O)(=O)c4cccs4)cc3C(=O)N([C@H](C)CO)C[C@@H]2C)cc1` is 10.2% (inactive); for `C[C@H]1CN([C@@H](C)CO)C(=O)c2cccc(NC(=O)Nc3ccc4c(c3)OCO4)c2O[C@@H]1CN(C)CC1CC1` it is 12.8% (inactive). As for `COc1ccc(CN(C)C[C@@H]2OCCCC[C@@H](C)Oc3ccc(NS(=O)(=O)c4c(C)noc4C)cc3C(=O)N([C@@H](C)CO)C[C@@H]2C)cc1`, the activation is -1% (inactive). As for `C[C@@H]1CCCCO[C@@H](CN(C)Cc2ccc(C(=O)O)cc2)[C@@H](C)CN([C@H](C)CO)C(=O)c2cc(NC(=O)Nc3cccc4ccccc34)ccc2O1`, the activation is 5.34% (inactive). On the same count and under the same terms, the result for `C[C@H]1CN([C@@H](C)CO)C(=O)c2cccc(NC(=O)Nc3ccc(F)cc3)c2O[C@@H]1CN(C)C(=O)Nc1ccc2c(c1)OCO2` reads 18.2% (inactive). Still for that read-out and setting: the figure for `C[C@@H]1CCCCO[C@H](CN(C)C)[C@H](C)CN([C@H](C)CO)C(=O)c2cc(NS(=O)(=O)c3ccc(Cl)cc3)ccc2O1` is 16.7% (inactive); for `COc1ccc(CN(C)C[C@H]2OCCCC[C@@H](C)Oc3ccc(NS(=O)(=O)c4cccs4)cc3C(=O)N([C@@H](C)CO)C[C@@H]2C)cc1` it is 10.1% (inactive); for `O=C(C[C@H]1CC[C@@H]2[C@H](COC[C@@H](O)CN2C(=O)Nc2cccc(Cl)c2)O1)N1CCCCC1` it is 32.4% (inactive).

In the case of `CCCN(C)C[C@@H]1OCCCC[C@@H](C)Oc2ccc(NS(=O)(=O)c3ccc(F)cc3)cc2C(=O)N([C@H](C)CO)C[C@@H]1C`, the activation is 10.6% (inactive). For the molecule `C[C@@H]1CCCCO[C@@H](CN(C)Cc2ccc(C(=O)O)cc2)[C@H](C)CN([C@@H](C)CO)C(=O)c2cc(NS(=O)(=O)c3ccc(Cl)cc3)ccc2O1`, the activation was 24.2% (inactive). Still for that read-out and setting: the result for `Cc1ccccc1-c1ccc2c(c1)O[C@@H](CN(C)Cc1ccc(C(=O)O)cc1)[C@@H](C)CN([C@@H](C)CO)S2(=O)=O` reads 0.523% (inactive). Still for that read-out and setting: the result for `COc1ccc2c3c([nH]c2c1)[C@H](CO)N(Cc1cc(F)ccc1F)CC31CN(C)C1` reads 11.2% (inactive). Still for that read-out and setting: the figure for `C[C@@H]1CCCCO[C@@H](CN(C)C)[C@@H](C)CN([C@@H](C)CO)C(=O)c2cc(NS(=O)(=O)c3ccc(Cl)cc3)ccc2O1` is 2.17% (inactive); for `COc1cccc(S(=O)(=O)N(C)C[C@@H]2Oc3ncccc3C(=O)N([C@H](C)CO)C[C@@H]2C)c1` it is 4.98% (inactive); for `COc1ccc(NC(=O)Nc2ccc3c(c2)C(=O)N([C@@H](C)CO)C[C@@H](C)[C@H](CN(C)Cc2ccc(C(=O)O)cc2)OCCCC[C@H](C)O3)cc1` it is 37.6% (inactive).
